Measurements published in PubChem BioAssay (NCI).
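96-well plates; 48 h exposure; 5 concentrations. Endpoints by linear interpolation between flanking doses. Not reached: highest tested concentration assigned. TGI: concentration producing complete growth inhibition.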

How the values were obtained:
Experiment in all cases: inhibition of tumour cell growth, NCI panel, 48 h
[1] = tested on: TK-10 renal
[2] = tested on: BT-549 breast
[3] = tested on: MCF7 breast
[4] = tested on: NCI/ADR-RES ovarian
[5] = tested on: DU-145 prostate
[6] = tested on: OVCAR-5 ovarian
[7] = tested on: A498 renal
[8] = tested on: NCI-H226 lung
[9] = tested on: ACHN renal
[10] = tested on: MALME-3M melanoma
[11] = tested on: HCT-116 colon
[12] = tested on: HOP-92 NSCLC
[13] = tested on: MDA-N
[14] = tested on: RXF 393 renal
[15] = tested on: SNB-75 CNS
[16] = tested on: MDA-MB-435
[17] = tested on: KM12 colon
[18] = tested on: K-562 leukemia
[19] = tested on: EKVX NSCLC
[20] = tested on: SW-620 colon
[21] = tested on: SN12C renal
[22] = tested on: CCRF-CEM leukemia
[23] = tested on: UO-31 renal
[24] = tested on: T-47D breast
[25] = tested on: PC-3 prostate
[26] = tested on: SK-MEL-5 melanoma
[27] = tested on: HS 578T breast
[28] = tested on: OVCAR-8 ovarian
[29] = tested on: SNB-19 CNS
[30] = tested on: HL-60(TB) leukemia
[31] = tested on: SK-MEL-28 melanoma
[32] = tested on: SF-268 CNS
[33] = tested on: SF-295 CNS
[34] = tested on: HCT-15 colon
[35] = tested on: NCI-H522 lung
[36] = tested on: LOX IMVI melanoma
[37] = tested on: SR leukemia
[38] = tested on: COLO 205 colon
[39] = tested on: U251 CNS
[40] = tested on: A549 NSCLC
[41] = tested on: RPMI-8226 leukemia
[42] = tested on: M14 melanoma
[43] = tested on: HOP-62 NSCLC
[44] = tested on: 786-0 renal
[45] = tested on: SF-539 CNS
[46] = tested on: CAKI-1 renal
[47] = tested on: NCI-H23 lung
[48] = tested on: UACC-257 melanoma
[49] = tested on: IGROV1 ovarian
[50] = tested on: MOLT-4 leukemia
[51] = tested on: SK-OV-3 ovarian
[52] = tested on: HT29 colon
[53] = tested on: HCC-2998 colon
[54] = tested on: OVCAR-3 ovarian
[55] = tested on: NCI-H460 lung
[56] = tested on: MDA-MB-231 breast
[57] = tested on: UACC-62 melanoma

Measured: TGI

CCOC(=O)c1nc2cc(C(F)(F)F)ccc2nc1Nc1cc(OC)c(OC)c(OC)c1
> 100 µM: all assays above
